In US6413959B1, “Method of treating depression with arylglycinamide derivatives” (Boehringer Ingelheim KG, priority 1995, dated 2002):

What was measured:
[1] = molecular target: T1, NK1-receptor (substance P-receptor) (Homo sapiens, UniProt P25103); experiment: NK1-receptor affinity, displacement of 125I-labelled substance P on IM-9 cells; assay type: binding; settings: human lymphoblastoma cells (IM-9) with cloned NK1-receptors
T1 construct: expressed in transfected cells; host or cells: IM-9 human lymphoblastoma cells

NK1 = molecular target: T2, NK1 (Cavia porcellus, UniProt P30547); experiment: Inhibition of the lowering of blood pressure caused by NK1 in anaesthetised guinea pigs; assay type: in vivo; settings: guinea pig, iv, antagonist given by intraduodenal route, NK1-agonist [βAla4, Sar9, Met(O2)11] SP(4-11) 0.2 μmol/kg i.v., read-out: ID50 (dose which inhibits the lowering of blood pressure caused by the NK1-agonist by 50%)
T2 construct: Guinea pigs weighing 300-500 grams were anaesthetised with pentobarbital; from tissue; host or cells: whole anaesthetised guinea pig (in vivo)
T2 sequence (P30547 whole entry): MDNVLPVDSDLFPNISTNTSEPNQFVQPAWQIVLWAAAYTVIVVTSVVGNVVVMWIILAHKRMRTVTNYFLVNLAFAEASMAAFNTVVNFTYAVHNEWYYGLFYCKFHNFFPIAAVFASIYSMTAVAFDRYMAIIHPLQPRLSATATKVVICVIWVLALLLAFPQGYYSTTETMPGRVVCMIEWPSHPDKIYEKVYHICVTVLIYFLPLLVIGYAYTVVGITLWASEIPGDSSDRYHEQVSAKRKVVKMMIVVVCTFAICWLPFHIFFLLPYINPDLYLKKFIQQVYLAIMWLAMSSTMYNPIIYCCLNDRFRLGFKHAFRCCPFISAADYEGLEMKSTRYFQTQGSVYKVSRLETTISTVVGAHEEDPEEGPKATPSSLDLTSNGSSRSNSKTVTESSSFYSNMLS

T1 sequence (P25103 whole entry): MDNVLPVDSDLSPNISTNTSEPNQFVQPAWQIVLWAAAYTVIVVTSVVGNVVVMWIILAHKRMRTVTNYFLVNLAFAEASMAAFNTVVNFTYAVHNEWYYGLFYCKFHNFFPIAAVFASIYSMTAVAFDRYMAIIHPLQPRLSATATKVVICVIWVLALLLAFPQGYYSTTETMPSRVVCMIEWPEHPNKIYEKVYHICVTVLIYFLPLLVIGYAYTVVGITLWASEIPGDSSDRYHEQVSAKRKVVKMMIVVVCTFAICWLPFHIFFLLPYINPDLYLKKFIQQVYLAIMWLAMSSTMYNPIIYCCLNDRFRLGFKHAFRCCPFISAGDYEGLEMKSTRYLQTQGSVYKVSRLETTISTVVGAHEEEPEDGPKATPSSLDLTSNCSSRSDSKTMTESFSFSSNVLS

CN(CCc1cc(C(F)(F)F)cc(C(F)(F)F)c1)C(=O)C(c1ccccc1)N1CCN(C2CCCCC2)CC1 (stereo not drawn) [Example 5]
Ki [1]: 1.3 nM | ED50 (NK1): 1.4 mg/kg | melting point: 158 to 164 °C
